The nature of this data set: RP, Waters XBridge C18, 50 × 2.1 mm, 3.5 µm, 30 °C, 0.2 mL/min, estimated dead time 0.55 min; A: water + 0.1% formic acid, pH 3; B: methanol + 0.1% formic acid, pH 3; gradient (min/%B) 0/10 4/50 17/95 25/95 25.1/10 30/10. The note with it: stereoisomer not certain.

SMILES strings stand for the structures.

For `CC(C)N(C(=O)CCl)c1ccccc1` [Propachlor], the LC retention time is 8.6 min. The result for `Nc1cnn(-c2ccccc2)c(=O)c1Cl` [Chloridazon] reads 5.2 min. `CC(=O)N(C)N(C(=O)C(=O)N(C)C)c1ccccc1` [Dioxoaminopyrine]: the LC retention time was 5.2 min. In the case of `NC(=O)N1c2ccccc2C2OC2c2ccccc21` (stereo not drawn) [Carbamazepine-10,11-epoxide] it was 6.3 min; in that of `CCC(C)c1cc([N+](=O)[O-])cc([N+](=O)[O-])c1O` (stereo not drawn) [Dinoseb], 13 min. In the case of `COCC(=O)Nc1c(I)c(C(=O)NCC(O)CO)c(I)c(C(=O)N(C)CC(O)CO)c1I` (stereo not drawn) [Iopromide] it was 2.7 min. With `COc1nc(C)nc(N)n1` [2-Methyl-4-amino-6-methoxy-s-triazine], the LC retention time is 1.7 min. The result for `CN(C)CCCC1(c2ccc(F)cc2)OCc2cc(C#N)ccc21` (stereo not drawn) [Citalopram] reads 6.6 min; that for `CNC(C)Cc1ccccc1` (stereo not drawn) [Methamphetamine], 3.7 min. In the case of `FC(F)(F)c1cccc(N2CCNCC2)c1` [1-(3-(Trifluoromethyl)phenyl)piperazine] it was 5.9 min. Take `CCC(C)(C)C(=O)OC1CC(C)C=C2C=CC(C)C(CCC3CC(O)CC(=O)O3)C21` (stereo not drawn) [Simvastatin]: the LC retention time was 16 min. In the case of `CON(C)C(=O)Nc1ccc(Cl)c(Cl)c1` [Linuron] it was 10 min.

As for `O=P1(NCCCl)OCCCN1CCCl` (stereo not drawn) [Ifosfamide], the LC retention time is 6.3 min. Consider `CCc1cccc(CC)c1N(COC)C(=O)CS(=O)(=O)O` [Alachlor ESA], for which the LC retention time is 7.7 min. In the case of `CC(C)(Oc1ccc(CCNC(=O)c2ccc(Cl)cc2)cc1)C(=O)O` [Bezafibrate] it was 10.6 min; in that of `CCCN(CCC)c1c([N+](=O)[O-])cc(C(F)(F)F)cc1[N+](=O)[O-]` [Trifluralin], 16.5 min. For `CC(C)NCC(O)COc1ccc(CC(=O)O)cc1` (stereo not drawn) [Atenolol acid], the LC retention time is 3.8 min. In the case of `CN(C)S(=O)(=O)Nc1ccccc1` [N,N-Dimethyl-N'-phenylsulfamide] it was 6.3 min; in that of `O=C(O)c1cn(C2CC2)c2cc(N3CCNCC3)c(F)cc2c1=O` [Ciprofloxacin], 4.5 min; in that of `CCN1CCCC1CNC(=O)c1cc(S(=O)(=O)CC)c(N)cc1OC` (stereo not drawn) [Amisulpride], 3.8 min. The result for `CN1C2CCC1C(C(=O)O)C(OC(=O)c1ccccc1)C2` (stereo not drawn) [Benzoylecgonine] reads 4.6 min; that for `Cc1cccc(C)c1N(Cn1cccn1)C(=O)CCl` [Metazachlor], 8.5 min; that for `O=C(O)C(c1ccccc1)C1CCCCN1` (stereo not drawn) [Ritalinic acid], 4.7 min. As to `COc1ccc2cc(C(C)C(=O)O)ccc2c1` (stereo not drawn) [Naproxen], the LC retention time was 10.2 min.

In the case of `NC(=O)Nc1ccc(Cl)c(Cl)c1` [Diuron-desdimethyl], the LC retention time is 8.3 min.

For `OCC1OC(OC2(CCl)OC(CCl)C(O)C2O)C(O)C(O)C1Cl` (stereo not drawn) [Sucralose], the LC retention time is 4.4 min. Take `CCC1OC(=O)C(C)C(OC2CC(C)(OC)C(O)C(C)O2)C(C)C(OC2OC(C)CC(N(C)C)C2O)C(C)(OC)CC(C)C(=O)C(C)C(O)C1(C)O` (stereo not drawn) [Clarithromycin]: the LC retention time was 9.7 min. In the case of `NS(=O)(=O)c1cc(C(=O)O)c(NCc2ccco2)cc1Cl` [Furosemide] it was 6.8 min; in that of `COc1nc(NC(C)C)nc(NC(C)C)n1` [Prometon], 6.7 min; in that of `CCCC1COC(Cn2cncn2)(c2ccc(Cl)cc2Cl)O1` (stereo not drawn) [Propiconazole], 13.1 min.

For the compound `Cc1ccc(N=CN(C)C=Nc2ccc(C)cc2C)c(C)c1` [Amitraz], the LC retention time was 15.4 min. In the case of `COC(=O)c1sccc1S(=O)(=O)NC(=O)Nc1nc(C)nc(OC)n1` [Thifensulfuron-methyl] it was 7.2 min; in that of `CC1(C)C(=O)Oc2ccc(OS(C)(=O)=O)cc21` [Ethofumesate-2-keto], 6 min; in that of `Nc1cn[nH]c(=O)c1Cl` [Chloridazone-desphenyl], 1.3 min. The result for `O=C(O)C(F)(F)C(F)(F)C(F)(F)C(F)(F)C(F)(F)C(F)(F)C(F)(F)C(F)(F)C(F)(F)C(F)(F)F` [Perfluoroundecanoic acid] reads 16.3 min; that for `CCCCCCCCn1sc(Cl)c(Cl)c1=O` [4,5-Dichloro-2-n-octyl-3(2H)-isothiazolone (DCOIT)], 15.3 min; that for `CC1=CC(=O)NS(=O)(=O)O1` [Acesulfame], 1.5 min.

Regarding `CNC(=O)Nc1ccc(Cl)c(Cl)c1` [Diuron-desmethyl], the LC retention time is 8.5 min. In the case of `CCC(=O)C(CC(C)N(C)C)(c1ccccc1)c1ccccc1` (stereo not drawn) [Methadone] it was 8.4 min; in that of `COc1cc(NS(=O)(=O)c2ccc(N)cc2)nc(OC)n1` [Sulfadimethoxine], 5.7 min.

Take `O=C(O)COCCN1CCN(C(c2ccccc2)c2ccc(Cl)cc2)CC1` (stereo not drawn) [Cetirizine]: the LC retention time is 9.3 min.

For `c1ccc2scnc2c1` [Benzothiazole], the LC retention time is 6.6 min. The result for `Nc1ccc(S(=O)(=O)O)cc1` [Sulfanilic acid] reads 0.9 min; that for `O=S(=O)(O)c1ccc2ccc(S(=O)(=O)O)cc2c1` [2,7-Naphthalenedisulfonic acid], 1.2 min. In the case of `C=C1C(=O)NC(C)C(=O)NC(CC(C)C)C(=O)NC(C(=O)O)C(C)C(=O)NC(CCCN=C(N)N)C(=O)NC(C=CC(C)=CC(C)C(Cc2ccccc2)OC)C(C)C(=O)NC(C(=O)O)CCC(=O)N1C` (stereo not drawn) [Microcystin-LR] it was 10.2 min; in that of `CCC(CO)NCCNC(CC)CO` (stereo not drawn) [Ethambutol], 9.6 min.

As for `CC(C)N(C(=O)C(=O)O)c1ccccc1` [Propachlor OXA], the LC retention time was 5.6 min.

In the case of `CC(C)(Oc1ccc(Cl)cc1)C(=O)O` [Clofibric acid], the LC retention time is 10 min.

For `O=c1[nH]c2c(c(=O)n1C1CCCCC1)CCC2` [Lenacil], the LC retention time is 8.6 min. On to `COc1ccc(CCC(=O)c2c(O)cc(OC3OC(CO)C(O)C(O)C3OC3OC(C)C(O)C(O)C3O)cc2O)cc1O` (stereo not drawn) [Neohesperidin dihydrochalcone], for which the LC retention time was 7.2 min. In the case of `Cc1nnc(-c2ccccc2)c(=O)n1N` [Metamitron] it was 4.9 min; in that of `Cn1sc(Cl)cc1=O` [5-Chloro-2-methyl-4-isothiazolin-3-one (CMI)], 3.7 min.

With `CC(=O)Nc1c(I)c(NC(C)=O)c(I)c(C(=O)O)c1I` [Diatrizoate], the LC retention time was 1.6 min. The result for `C=C1CC2C(CCC3(C)C(=O)CCC23)C2(C)C=CC(=O)C=C12` (stereo not drawn) [Exemestane] reads 10.1 min.

In the case of `COc1nc(NC(=O)NS(=O)(=O)c2ccccc2C(F)(F)F)nc(C(F)(F)F)n1` [Tritosulfuron], the LC retention time is 10.8 min. With `CN1CCC23c4c5ccc(O)c4OC2C(O)C=CC3C1C5` (stereo not drawn) [Morphine], the LC retention time was 1.1 min.

As to `CC1=NNC(=O)N(N=Cc2cccnc2)C1` [Pymetrozine], the LC retention time is 1.5 min. With `O=C(O)c1cccc(Oc2ccccc2)c1` [3-Phenoxybenzoic acid], the LC retention time is 11.5 min.

As to `CSc1nnc(C(C)(C)C)c(=O)n1N` [Metribuzin], the LC retention time is 6.9 min. The result for `COC(=O)NS(=O)(=O)c1ccc(N)cc1` [Asulam] reads 2.4 min.

With `Cc1cc(Cl)ccc1OCCCC(=O)O` [MCPB], the LC retention time is 11.9 min. As to `CNC(=N[N+](=O)[O-])NCc1cnc(Cl)s1` [Clothianidin], the LC retention time is 4.9 min. In the case of `COc1ccc(C(=O)c2ccccc2)c(O)c1` [Benzophenone-3] it was 12.1 min; in that of `COC(=O)C1C(OC(=O)c2ccccc2)CC2CCC1N2C` (stereo not drawn) [Cocaine], 5 min. The result for `CC(=O)Nc1c(C)n(C)n(-c2ccccc2)c1=O` [4-Acetamidoantipyrine] reads 3.7 min; that for `N#CCNC(=O)c1cnccc1C(F)(F)F` [Flonicamid], 3.9 min; that for `CCNc1nc(Cl)nc(NC(C)(C)C)n1` [Terbutylazine], 10.1 min.

`COc1c(C)c2c(c(O)c1CC=C(C)CCC(=O)O)C(=O)OC2` [Mycophenolic acid]: the LC retention time is 9.9 min. The result for `O=C(O)c1ccccc1Nc1cccc(C(F)(F)F)c1` [Flufenamic acid] reads 14.6 min; that for `CCCCNC(=O)OCC#CI` [Iodocarb], 8.4 min; that for `CN=CNc1ccc(C)cc1C` [N'-(2,4-Dimethylphenyl)-N-methylformamidine], 4.5 min. The result for `CNCCCC(C#N)(c1ccc(OC)c(OC)c1)C(C)C` (stereo not drawn) [D617] reads 6.3 min. In the case of `CCNc1nc(N)nc(Cl)n1` [Atrazine-desisopropyl], the LC retention time was 4.3 min.

For the compound `COCCN(C(=O)C(=O)O)c1c(C)cccc1C` [Dimethachlor OXA], the LC retention time is 6.6 min. The result for `CCOP(=S)(OCC)Oc1nc(Cl)c(Cl)cc1Cl` [Chlorpyrifos] reads 16 min.

As for `CC(=O)Nc1c(I)c(C(=O)O)c(I)c(C(=O)NCCO)c1I` [Ioxitalamic acid], the LC retention time is 1.3 min. Turning to `O=C1Nc2ccc(Cl)cc2C(c2ccccc2)=NC1O` (stereo not drawn) [Oxazepam], the LC retention time was 9 min. In the case of `CN1COCN(Cc2cnc(Cl)s2)C1=N[N+](=O)[O-]` [Thiamethoxam] it was 4.1 min.

The record behind these values is the RepoRT retention time repository (doi:10.1021/es4044374).
